From patent US8809538B2, “Piperidine-containing compounds and use thereof” (Array BioPharma Inc., priority 2009, dated 2014)

Tests used:
Crl: CD(SD) rats = assay: Evaluation of hepatic damage by the compounds in rats; format: in vivo; conditions: 100 mg/kg orally once daily for 4 days, blood at the day after the final dosing
Experimental: (3) Evaluation of Hepatic Damage by the Compounds in Rats
The compounds of the present invention were administered orally to male Crl: CD(SD) rats with four animals per group once daily for 4 days at dose levels of 0 (control) and 100 mg/kg to investigate hepatotoxicity. The compounds of the present invention were dissolved in 70% Wellsolve (solubilizer, Celeste Corporation) containing 30% DMSO (dimethyl sulfoxide) and administered orally at a dose volume of 10 mL/kg. The control group was treated with the vehicle at the same dosing volume.
Blood was drawn from the abdominal vein of each animal at the day after the final dosing. The plasma was separated by centrifugation at 13,684×g for 5 min at 4° C. The plasma concentration of aspartate aminotransferase (AST) and alanine aminotransferase (ALT), biochemical markers of hepatic damage, were measured.

[1] = tested on: rat transient focal cerebral ischemia model; assay: Assay of a neuroprotective effect in the rat transient focal cerebral ischemia model (MCA occlusion); format: in vivo, Sprague Dawley rats; conditions: 120 min MCA occlusion, 100 mg/kg orally 1 hour before and 12 hours after MCA occlusion, evaluated at 24 hours after MCA occlusion
Experimental: (2) Assay of a Neuroprotective Effect of the Compound in the Rat Transient Focal Cerebral Ischemia Model.
Transient focal cerebral ischemia (120 min) was induced by intraluminal middle cerebral artery (hereinafter abbreviated to MCA) occlusion using the method of Koizumi et al., (in Japanese Journal of Stroke 1986; 8:1-8). Male Sprague Dawley rats (7 weeks old; Charles River Japan) were used. Under conditions of 30% oxygen and 70% air, the animals inhaled 2.5% halothane (Takeda Chemical Industries, Ltd.) through a halothane vaporizer (Shinano Works). Under the anesthesia, the left common carotid artery (hereinafter abbreviated to CCA), the external carotid artery (hereinafter abbreviated to ECA) and the internal carotid artery (hereinafter abbreviated to ICA) were isolated from surrounding connective tissue, then the CCA and the ECA were ligated with surgical thread. […] Immediately before MCA reperfusion neurological score of animals were observed using the method of Yonemori et al., (in J Cereb Blood Flow Metab 1996; 16: 973-80.) and animals that scored less than 5 were excluded due to insufficient occlusion. […]
At 24 hours after MCA occlusion, neurological score were evaluated. […] The cerebral infarct area was identified in scanned images and measured using image analysis software (Photoshop 5.5/NIH image 1.63) to determine the infarct area per slice. […]

[2] = tested on: high fat-fed obese mice (C57BL/6-DIO); assay: Assay of an anti-diabetic effect in DIO (diet-induced obese) mice; format: in vivo; conditions: oral, 30 or 100 mg/kg b.i.d. for 15 days, overnight fasting state, dose-dependently
Description: (1) Assay of an Anti-Diabetic Effect of the Compounds in DIO (Diet-Induced Obese) Mice
Male, 12-weeks old high fat-fed obese mice (C57BL/6-DIO, Charles River Japan) were orally administered with the compounds of the present invention twice a day for 15 days. During the experiment, mice were provided high fat pellet diet (D12492, Research Diets) and tap water from bottle of feed water ad libitum. On the first day of the experiment, blood samples were collected from tail vein using a microcapillary to measure plasma glucose concentration. Based on plasma glucose concentration, mice were divided into some groups (five mice per group) and started dosing. The dosing was carried out by oral gavage, after suspending the compounds of the present invention in the previously described vehicle. The control group received only the vehicle. After 15 days from starting the dosing, plasma samples were collected from tail vein at overnight fasting state. Plasma glucose and insulin levels were measured with commercial kits (glucose, Glucose CH-Test Wako®, Wako Pure Chemical Industries, Ltd.; insulin, Rat Insulin ELISA Kit, Morinaga Institute of Biological Science Inc.).

Compound: CCOc1nc(C(=O)NCC2CCN(Cc3sc(-c4ccccn4)nc3CN(C)C)CC2)cc(N)c1C#N [Example 118, 4-amino-5-cyano-N-((1-((4-((dimethylamino)methyl)-2-(pyridin-2-yl)thiazol-5-yl)methyl)piperidin-4-yl)methyl)-6-ethoxypicolinamide]
- plasma alanine aminotransferase (ALT) level (Crl: CD(SD) rats): not increased
- plasma aspartate aminotransferase (AST) level (Crl: CD(SD) rats): not increased

Compound: CCOc1nc(C(=O)NCC2CCN(Cc3cnc(-c4ccccn4)s3)CC2)cc(N)c1C#N [Example 115, 4-amino-5-cyano-6-ethoxy-N-((1-((2-(pyridin-2-yl)thiazol-5-yl)methyl)piperidin-4-yl)methyl)picolinamide]
- cerebral infarct volume [1]: significant preventive effect
- neurological score [1]: significant preventive effect
- plasma alanine aminotransferase (ALT) level (Crl: CD(SD) rats): not increased
- plasma aspartate aminotransferase (AST) level (Crl: CD(SD) rats): not increased
- fasted plasma glucose level [2]: significantly decreased
- fasted plasma insulin level [2]: significantly decreased
